According to paper PMC2877376 (Journal of biomolecular screening, 2009):

System: E. coli K-12 sulA-gfp (strain SS996)
Test: RecA-dependent SOS activation, sulA-gfp reporter
Assay type: cell-based, Escherichia coli
Conditions: ciprofloxacin only, 90 min, 37 °C; untreated bacteria 0.76

Structure (SMILES): O=C(O)c1cn(C2CC2)c2cc(N3CCNCC3)c(F)cc2c1=O [ciprofloxacin]
- relative GFP expression (GFP/DAPI intensity ratio): 0.87
